Data on 22 compounds can be found in patent publication US8592455B2 (priority 2008, dated 2013).

Test [1] concerns the target Pim1 kinase (Homo sapiens (Human), UniProt P11309). To be noted: read-out: Pim1 IC50.
For test [2], the target named is Pim3 kinase (Homo sapiens (Human), UniProt Q86V86). The following applies: read-out: Pim3 IC50.

Chain of Pim1 kinase (P11309 whole entry): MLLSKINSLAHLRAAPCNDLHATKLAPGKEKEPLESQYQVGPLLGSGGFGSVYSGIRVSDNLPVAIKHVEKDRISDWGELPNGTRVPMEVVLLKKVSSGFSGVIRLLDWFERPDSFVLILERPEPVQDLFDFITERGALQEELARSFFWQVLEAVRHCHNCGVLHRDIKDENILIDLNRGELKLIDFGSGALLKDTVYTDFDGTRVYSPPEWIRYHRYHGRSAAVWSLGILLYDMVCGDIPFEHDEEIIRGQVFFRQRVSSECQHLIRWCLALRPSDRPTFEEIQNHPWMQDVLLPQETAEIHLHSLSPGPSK

As for `C[C@@H]1C[C@H](c2ccncc2NC(=O)c2cccc(-c3c(F)cccc3F)n2)C[C@H](N)[C@H]1O` (stereo in doubt) [Example 52, N-(4-((1S,3S,4S,5R)-3-amino-4-hydroxy-5-methylcyclohexyl)pyridin-3-yl)-6-(2,6-difluorophenyl)picolinamide], the 50% inhibitory concentration (IC50) is 1 nM in test [1] and 2 nM in test [2]. The matching figures for `C[C@H]1C[C@@H](c2ccncc2NC(=O)c2ccc(F)c(C3CCCCC3)n2)C[C@@H](N)[C@@H]1O` (stereo in doubt) [Example 89, N-(4-(3-amino-4-hydroxy-5-methylcyclohexyl)pyridin-3-yl)-6-cyclohexyl-5-fluoropicolinamide]: 8 nM and 29 nM. The matching figures for `C[C@H]1C[C@@H](c2ccncc2NC(=O)c2nc(C3CCCCC3)ccc2N)C[C@@H](N)[C@@H]1O` (stereo in doubt) [Example 90, 3-amino-N-(4-(3-amino-4-hydroxy-5-methylcyclohexyl)pyridin-3-yl)-6-cyclohexylpicolinamide]: 3 nM and 12 nM. The matching figures for `C[C@@H]1C[C@H](N)C[C@H](c2ccncc2NC(=O)c2ccc(F)c(C3CCCCC3)n2)C1` (stereo in doubt) [Example 91, N-(4-(3-amino-5-methylcyclohexyl)pyridin-3-yl)-6-cyclohexyl-5-fluoropicolinamide]: 3 nM and 21 nM. As for `CC(=O)O[C@H]1CC[C@@H](c2ccncc2NC(=O)c2nc(-c3c(F)cccc3F)ccc2N)C[C@H]1N` (stereo in doubt) [Example 101, 2-amino-4-(3-(3-amino-6-(2,6-difluorophenyl)picolinamido)pyridin-4-yl)cyclohexyl acetate], the IC50 was found to be 2 nM in test [1] and 5 nM in test [2].

Take `C[C@H]1C[C@@H](c2ccncc2NC(=O)c2nc(-c3c(F)cccc3F)c(F)cc2N)C[C@@H](N)[C@@H]1O` (stereo in doubt) [Example 130, 3-amino-N-(4-(3-amino-4-hydroxy-5-methylcyclohexyl)pyridin-3-yl)-6-(2,6-difluorophenyl)-5-fluoropicolinamide]: the IC50 in test [1] came out at 2 nM.

`Nc1cc(F)c(-c2c(F)cccc2F)nc1C(=O)Nc1cnccc1[C@@H]1CC[C@H](O)[C@H](N)C1` (stereo in doubt) [Example 131, 3-amino-N-(4-(3-amino-4-hydroxycyclohexyl)pyridin-3-yl)-6-(2,6-difluorophenyl)-5-fluoropicolinamide]: the IC50 in test [1] turned out to be 2 nM. With `C[C@H]1C[C@@H](c2ccncc2NC(=O)c2nc(-c3c(F)cccc3F)c(F)cc2N)C[C@@H](N)[C@H]1O` (stereo in doubt) [Example 132, 3-amino-N-(4-(3-amino-4-hydroxy-5-methylcyclohexyl)pyridin-3-yl)-6-(2,6-difluorophenyl)-5-fluoropicolinamide], the IC50 in test [1] was found to be 1 nM. On to `C[C@H]1CN(c2ccncc2NC(=O)c2ccc(F)c(C3CCCCC3)n2)C[C@@H](N)[C@@H]1O` [Example 16, N-(4-((3R,4R,5S)-3-amino-4-hydroxy-5-methylpiperidin-1-yl)pyridin-3-yl)-6-cyclohexyl-5-fluoropicolinamide], for which, in test [1], the IC50 worked out at 1 nM.

For `C[C@H]1CN(c2ccncc2NC(=O)c2ccc(F)c(-c3ccccc3F)n2)C[C@@H](N)[C@@H]1O` [Example 25, N-(4-((3R,4R,5S)-3-amino-4-hydroxy-5-methylpiperidin-1-yl)pyridin-3-yl)-5-fluoro-6-(2-fluorophenyl)picolinamide], in test [1], the IC50 turned out to be 1 nM. As to `C[C@H]1CN(c2ccncc2NC(=O)c2cccc(-c3c(F)cccc3F)n2)C[C@@H](N)[C@@H]1O` [Example 26, N-(4-((3R,4R,5S)-3-amino-4-hydroxy-5-methylpiperidin-1-yl)pyridin-3-yl)-6-(2,6-difluorophenyl)picolinamide], in test [1], the IC50 amounted to 1 nM.

Take `C[C@@H]1C[C@H](N)C[C@H](c2ccncc2NC(=O)c2nc(-c3c(F)cc(O)cc3F)ccc2F)C1` [Example 42, N-(4-((1R,3S,5S)-3-amino-5-methylcyclohexyl)pyridin-3-yl)-6-(2,6-difluoro-4-hydroxyphenyl)-3-fluoropicolinamide]: the IC50 in test [1] is 1 nM. As to `COc1ccc(F)c(-c2nc(C(=O)Nc3cnccc3[C@@H]3C[C@H](C)C[C@H](N)C3)ccc2F)c1` [Example 45, N-(4-((1R,3S,5S)-3-amino-5-methylcyclohexyl)pyridin-3-yl)-5-fluoro-6-(2-fluoro-5-methoxyphenyl)picolinamide], the IC50 in test [1] turned out to be 1 nM. As for `C[C@@H]1C[C@H](N)C[C@H](c2ccncc2NC(=O)c2ccc(F)c([C@H]3CC[C@@H](O)CC3)n2)C1` [Example 54, N-(4-((1R,3S,5S)-3-amino-5-methylcyclohexyl)pyridin-3-yl)-5-fluoro-6-((1s,4s)-4-hydroxycyclohexyl)picolinamide], the IC50 in test [1] came out at 3 nM. On the same count and under the same terms, to `C[C@@H]1C[C@H](N)C[C@H](c2ccncc2NC(=O)c2ccc(F)c([C@H]3CC[C@H](O)CC3)n2)C1` [Example 55, N-(4-((1R,3S,5S)-3-amino-5-methylcyclohexyl)pyridin-3-yl)-5-fluoro-6-((1r,4r)-4-hydroxycyclohexyl)picolinamide] belongs 3 nM. `Nc1cc(F)c(-c2c(F)cccc2F)nc1C(=O)Nc1cnccc1[C@@H]1CC[C@H](O)[C@H](N)C1` [Example 65, 3-amino-N-(4-((1R,3R,4S)-3-amino-4-hydroxycyclohexyl)pyridin-3-yl)-6-(2,6-difluorophenyl)-5-fluoropicolinamide]: the IC50 in test [1] was 1 nM. The same measure, in the same setting: the result for `Nc1ccc(-c2c(F)cccc2F)nc1C(=O)Nc1cnccc1[C@@H]1CC[C@H](O)[C@@H](N)C1` [Example 104, 3-amino-N-(4-((1R,3S,4S)-3-amino-4-hydroxycyclohexyl)pyridin-3-yl)-6-(2,6-difluorophenyl)picolinamide] reads 3 nM. Consider `Nc1ccc(-c2c(F)cccc2F)nc1C(=O)Nc1cnccc1C1=CC(N)CCC1` (stereo not drawn) [Example 107, 3-amino-N-(4-(3-aminocyclohex-1-enyl)pyridin-3-yl)-6-(2,6-difluorophenyl)picolinamide], for which, in test [1], the IC50 amounted to 2 nM. The same measure, in the same setting: to `COc1cc(F)c(-c2cccc(C(=O)Nc3cnccc3[C@H]3C[C@@H](N)C[C@@H](C(F)(F)F)C3)n2)c(F)c1` [Example 109, N-(4-((1R,3R,5S)-3-amino-5-(trifluoromethyl)cyclohexyl)pyridin-3-yl)-6-(2,6-difluoro-4-methoxyphenyl)picolinamide] belongs 1 nM.

Take `C[C@H]1C[C@@H](c2ccncc2NC(=O)c2nc(-c3c(F)cccc3F)c(F)cc2N)C[C@@H](O)[C@@H]1O` [Example 121, 3-amino-6-(2,6-difluorophenyl)-N-(4-((1R,3R,4R,5S)-3,4-methylcyclohexyl)pyridin-3-yl)-5-fluoropicolinamide]: the IC50 in test [2] stood at 2 nM. Take `CC1(C)C[C@H](N)C[C@H](c2ccncc2NC(=O)c2ccc(F)c(-c3c(F)cc(O)cc3F)n2)C1` [Example 122, N-(4-((1R,5R)-5-amino-3,3-dimethylcyclohexyl)pyridin-3-yl)-6-(2,6-difluoro-4-hydroxyphenyl)-5-fluoropicolinamide]: in test [1], the half-inhibitory concentration (IC50) turned out to be 1 nM. For `C[C@H]1C[C@@H](c2ccncc2NC(=O)c2ccc(F)c(-c3c(F)cccc3F)n2)C[C@@H](N)[C@H]1F` [Example 139, N-(4-((1R,3R,4S,5S)-3-amino-4-fluoro-5-methylcyclohexyl)-pyridin-3-yl)-6-(2,6-difluorophenyl)-5-fluoropicolinamide], the IC50 in test [2] was 4 nM.

For orientation: IC50 means the concentration that inhibits the measured activity by half.
